In ChEMBL document CHEMBL4043107, “Stable C-N axial chirality in 1-aryluracil scaffold and differences in in vitro metabolic clearance between atropisomers of PDE4 inhibitor” (Bioorg Med Chem, 2017):
Several values for one entry are separate records, joined by “and”; a condition that tells them apart may be missing. Equal values may be shown once.

Target: 3',5'-cyclic-AMP phosphodiesterase 4A (Homo sapiens, UniProt P27815)
Experiment: Inhibition of human full length recombinant PDE4A1A using FAM-cAMP as substrate after 30 mins by fluorescence based spectrophotometric method

Sequence of 3',5'-cyclic-AMP phosphodiesterase 4A (P27815 whole entry): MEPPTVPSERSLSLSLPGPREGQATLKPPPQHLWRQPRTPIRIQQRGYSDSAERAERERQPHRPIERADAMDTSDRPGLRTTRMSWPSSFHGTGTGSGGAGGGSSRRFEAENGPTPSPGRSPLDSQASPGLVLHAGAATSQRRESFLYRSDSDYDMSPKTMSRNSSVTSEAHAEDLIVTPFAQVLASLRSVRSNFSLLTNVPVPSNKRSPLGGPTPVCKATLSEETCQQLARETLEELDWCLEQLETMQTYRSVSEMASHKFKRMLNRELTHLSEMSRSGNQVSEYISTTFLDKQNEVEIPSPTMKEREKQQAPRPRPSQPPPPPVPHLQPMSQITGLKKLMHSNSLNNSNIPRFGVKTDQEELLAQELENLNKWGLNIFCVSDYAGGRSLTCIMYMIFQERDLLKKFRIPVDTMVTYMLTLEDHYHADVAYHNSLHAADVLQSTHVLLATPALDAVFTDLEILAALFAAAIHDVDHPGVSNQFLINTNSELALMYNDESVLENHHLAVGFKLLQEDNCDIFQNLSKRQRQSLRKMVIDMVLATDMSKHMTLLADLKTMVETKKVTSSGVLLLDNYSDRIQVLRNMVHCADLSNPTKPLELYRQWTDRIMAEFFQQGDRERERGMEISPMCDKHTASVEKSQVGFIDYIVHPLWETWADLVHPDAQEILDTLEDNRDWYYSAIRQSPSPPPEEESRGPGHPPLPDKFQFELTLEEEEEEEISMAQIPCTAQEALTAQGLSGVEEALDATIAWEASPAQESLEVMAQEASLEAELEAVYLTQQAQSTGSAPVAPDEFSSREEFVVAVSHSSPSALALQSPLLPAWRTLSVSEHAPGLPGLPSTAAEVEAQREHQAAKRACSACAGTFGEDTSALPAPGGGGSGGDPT

- IC50: 70 µM and 125 µM
Structure (SMILES): CCCn1c(=O)c2ccc(N)nc2n(-c2cc(OC)ccc2OC)c1=O
